biological target: T1, KDM5A (Homo sapiens, UniProt P29375); experiment: KDM5 enzyme assay, KDM5A HTRF (Example 463); assay type: biochemical; conditions: not given
T1 construct: Full length KDM5A enzyme was expressed and purified inhouse; made in house
T1 sequence (P29375 whole entry): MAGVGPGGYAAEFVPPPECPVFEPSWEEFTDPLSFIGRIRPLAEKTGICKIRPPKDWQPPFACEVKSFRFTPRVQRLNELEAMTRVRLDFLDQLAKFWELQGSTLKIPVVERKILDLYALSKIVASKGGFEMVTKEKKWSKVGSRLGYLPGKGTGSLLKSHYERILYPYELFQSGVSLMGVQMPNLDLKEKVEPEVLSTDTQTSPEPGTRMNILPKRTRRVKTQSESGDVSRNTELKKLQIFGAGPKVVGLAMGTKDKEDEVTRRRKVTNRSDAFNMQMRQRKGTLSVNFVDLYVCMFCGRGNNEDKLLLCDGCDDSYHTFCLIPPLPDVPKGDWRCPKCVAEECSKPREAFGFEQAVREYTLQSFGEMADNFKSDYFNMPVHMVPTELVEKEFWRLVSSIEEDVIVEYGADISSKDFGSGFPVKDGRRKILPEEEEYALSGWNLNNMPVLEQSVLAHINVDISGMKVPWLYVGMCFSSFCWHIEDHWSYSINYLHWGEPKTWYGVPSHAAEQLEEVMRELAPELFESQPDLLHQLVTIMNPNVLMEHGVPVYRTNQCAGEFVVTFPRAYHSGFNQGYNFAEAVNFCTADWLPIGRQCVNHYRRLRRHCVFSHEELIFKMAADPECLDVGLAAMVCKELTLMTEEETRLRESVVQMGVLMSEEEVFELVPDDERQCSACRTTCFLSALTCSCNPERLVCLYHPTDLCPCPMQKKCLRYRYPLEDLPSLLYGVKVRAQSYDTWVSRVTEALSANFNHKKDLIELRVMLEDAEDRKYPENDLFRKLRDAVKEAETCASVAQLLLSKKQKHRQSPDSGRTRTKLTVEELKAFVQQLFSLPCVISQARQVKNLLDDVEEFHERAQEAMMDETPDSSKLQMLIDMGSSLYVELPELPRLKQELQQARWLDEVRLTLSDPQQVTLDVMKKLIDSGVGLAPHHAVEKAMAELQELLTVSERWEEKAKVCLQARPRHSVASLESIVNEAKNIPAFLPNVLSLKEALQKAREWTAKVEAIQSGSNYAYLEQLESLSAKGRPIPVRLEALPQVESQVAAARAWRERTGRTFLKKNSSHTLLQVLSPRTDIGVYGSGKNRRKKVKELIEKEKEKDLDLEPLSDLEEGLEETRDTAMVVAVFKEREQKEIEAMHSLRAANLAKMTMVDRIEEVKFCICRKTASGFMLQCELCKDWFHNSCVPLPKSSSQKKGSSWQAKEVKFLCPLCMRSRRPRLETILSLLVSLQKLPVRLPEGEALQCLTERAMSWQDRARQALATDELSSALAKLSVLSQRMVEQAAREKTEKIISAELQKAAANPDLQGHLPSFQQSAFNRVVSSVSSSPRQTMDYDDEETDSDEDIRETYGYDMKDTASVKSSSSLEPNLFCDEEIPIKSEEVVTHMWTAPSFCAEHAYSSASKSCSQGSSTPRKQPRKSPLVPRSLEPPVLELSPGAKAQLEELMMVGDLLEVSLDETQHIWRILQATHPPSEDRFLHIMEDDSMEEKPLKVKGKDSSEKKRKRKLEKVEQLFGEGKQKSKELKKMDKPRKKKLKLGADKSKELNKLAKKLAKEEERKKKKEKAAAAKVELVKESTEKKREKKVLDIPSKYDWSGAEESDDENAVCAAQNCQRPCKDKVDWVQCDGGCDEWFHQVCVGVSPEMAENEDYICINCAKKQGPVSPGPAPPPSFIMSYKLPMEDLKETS

| Structure (SMILES) | IC50 [nM] |
| --- | --- |
| N#Cc1cnn2c(=O)c(Br)c(-c3ccccc3)[nH]c12 [Example 45, 6-Bromo-7-oxo-5-phenyl-4,7-dihydropyrazolo[1,5-a]pyrimidine-3-carbonitrile] | 30 |

same assay, conditions: compounds of Examples 1-432; read-out: Example 463 Assay KDM5A HTRF IC50

| IC50 [nM] | Structure (SMILES) |
| --- | --- |
| 19 | CCc1c(-c2cccc(Nc3ccc(F)cc3)c2)[nH]c2c(C#N)cnn2c1=O [Example 41, 6-Ethyl-5-(3-((4-fluorophenyl)amino)phenyl)-7-oxo-4,7-dihydropyrazolo[1,5-a]pyrimidine-3-carbonitrile] |
| 21 | CC(C)c1c(-c2cccc(N3CCCC3=O)c2)[nH]c2c(C#N)cnn2c1=O [Example 42, 6-isopropyl-7-oxo-5-(3-(2-oxopyrrolidin-1-yl)phenyl)-4,7-dihydropyrazolo[1,5-a]pyrimidine-3-carbonitrile] |
| 83 | N#Cc1cnn2c(=O)cc(-c3cc(N)cc(-c4ccccc4)c3)[nH]c12 [Example 43, 5-(3-amino-5-phenyl-phenyl)-7-oxo-4H-pyrazolo[1,5-a]pyrimidine-3-carbonitrile] |
| 368 | CC(=O)Nc1cc(-c2ccccc2)cc(-c2cc(=O)n3ncc(C#N)c3[nH]2)c1 [Example 44, N-[3-(3-Cyano-7-oxo-4H-pyrazolo[1,5-a]pyrimidin-5-yl)-5-phenyl-phenyl]acetamide] |
| 2900 | Cc1[nH]c2c(C#N)cnn2c(=O)c1-c1ccco1 [Example 46, 6-(2-Furyl)-5-methyl-7-oxo-4H-pyrazolo[1,5-a]pyrimidine-3-carbonitrile] |
| 24 | CC(C)c1c(Nc2ccccc2)[nH]c2c(C#N)cnn2c1=O [Example 47, 6-isopropyl-7-oxo-5-(phenylamino)-4,7-dihydropyrazolo[1,5-a]pyrimidine-3-carbonitrile] |
| 84 | CC(C)c1c(N2CCCCC2)[nH]c2c(C#N)cnn2c1=O [Example 48, 6-isopropyl-7-oxo-5-(piperidin-1-yl)-4,7-dihydropyrazolo[1,5-a]pyrimidine-3-carbonitrile] |
| 25 | CC(C)c1c(Oc2ccccc2)[nH]c2c(C#N)cnn2c1=O [Example 49, 6-isopropyl-7-oxo-5-phenoxy-4,7-dihydropyrazolo[1,5-a]pyrimidine-3-carbonitrile] |
| 20 | CC(C)c1c(-c2coc3ccccc23)[nH]c2c(C#N)cnn2c1=O [Example 50] |
| 8.3 | CC(C)c1c(-c2ccn(-c3ccccc3)n2)[nH]c2c(C#N)cnn2c1=O [Example 51] |
| 5.8 | CC(C)c1c(-c2ccc(C3CC3)o2)[nH]c2c(C#N)cnn2c1=O [Example 52] |
| 17 | Cc1occc1-c1[nH]c2c(C#N)cnn2c(=O)c1C(C)C [Example 53] |
| 6 | CC(C)c1c(-c2cnn(-c3ccccc3)c2)[nH]c2c(C#N)cnn2c1=O [Example 54] |
| 11 | CCn1cc(-c2[nH]c3c(C#N)cnn3c(=O)c2C(C)C)cn1 [Example 55] |
| 16 | CC(C)c1c(-c2ccc(=O)n(C)c2)[nH]c2c(C#N)cnn2c1=O [Example 56] |
| 5.7 | CCc1c(-c2ccco2)[nH]c2c(C#N)cnn2c1=O [Example 57] |
| 7.3 | CC(C)c1c(-c2cc(C3CC3)co2)[nH]c2c(C#N)cnn2c1=O [Example 58] |
| 34 | CC(C)c1c(-c2ccc(-c3ccccc3)o2)[nH]c2c(C#N)cnn2c1=O [Example 59] |
| 19 | CC(C)c1c(-c2cnn(C(C)C)c2)[nH]c2c(C#N)cnn2c1=O [Example 60] |
| 10 | CC(C)c1c(-c2cncnc2)[nH]c2c(C#N)cnn2c1=O [Example 61] |
| 12 | Cc1cncc(-c2[nH]c3c(C#N)cnn3c(=O)c2C(C)C)c1 [Example 62] |
| 15 | CC(C)c1c(-c2ccn(C)n2)[nH]c2c(C#N)cnn2c1=O [Example 63] |
| 14 | CC(C)c1c(-c2ccccc2F)[nH]c2c(C#N)cnn2c1=O [Example 66] |
| 10 | CC(C)c1c(-c2ccc(C#N)cc2)[nH]c2c(C#N)cnn2c1=O [Example 67] |

Second part, the compound before the results:

| Structure (SMILES) | IC50 [nM] |
| --- | --- |
| CNC(=O)C(C)(C)n1cc(-c2[nH]c3c(C#N)cnn3c(=O)c2C(C)C)cn1 [Example 13, 2-(4-(3-Cyano-6-isopropyl-7-oxo-4,7-dihydropyrazolo[1,5-a]pyrimidin-5-yl)-1H-pyrazol-1-yl)-N,2-dimethylpropanamide] | 23 |
| CC(C)c1c(-c2cnn(C(C)C)c2F)[nH]c2c(C#N)cnn2c1=O [Example 14, 5-(5-Fluoro-1-isopropyl-1H-pyrazol-4-yl)-6-isopropyl-7-oxo-4,7-dihydropyrazolo[1,5-a]pyrimidine-3-carbonitrile] | 5.3 |
| CC(C)c1c(-c2cnn(C3CCSCC3)c2)[nH]c2c(C#N)cnn2c1=O [Example 17, 6-isopropyl-7-oxo-5-(1-(tetrahydro-2H-thiopyran-4-yl)-1H-pyrazol-4-yl)-4,7-dihydropyrazolo[1,5-a]pyrimidine-3-carbonitrile] | 41 |
| CC(C)c1c(-c2cnn(C3CCS(=O)(=O)CC3)c2)[nH]c2c(C#N)cnn2c1=O [Example 18, 5-(1-(1,1-Dioxidotetrahydro-2H-thiopyran-4-yl)-1H-pyrazol-4-yl)-6-isopropyl-7-oxo-4,7-dihydropyrazolo[1,5-a]pyrimidine-3-carbonitrile] | 21 |
| CC(=O)/C=C/c1cccc(Cn2cc(-c3[nH]c4c(C#N)cnn4c(=O)c3C(C)C)cn2)n1 [Example 19, (E)-6-isopropyl-7-oxo-5-(1-((6-(3-oxobut-1-en-1-yl)pyridin-2-yl)methyl)-1H-pyrazol-4-yl)-4,7-dihydropyrazolo[1,5-a]pyrimidine-3-carbonitrile] | 55 |
| CCc1c[nH]c2c(C#N)cnn2c1=O [Example 20, 6-Ethyl-7-oxo-4,7-dihydropyrazolo[1,5-a]pyrimidine-3-carbonitrile] | 37 |
| CC(C)(C)c1c[nH]c2c(C#N)cnn2c1=O [Example 21, 6-(tert-Butyl)-7-oxo-4,7-dihydropyrazolo[1,5-a]pyrimidine-3-carbonitrile] | 38 |
| CC(C)c1c(CCc2ccccc2)[nH]c2c(C#N)cnn2c1=O [Example 23, 6-isopropyl-7-oxo-5-phenethyl-4,7-dihydropyrazolo[1,5-a]pyrimidine-3-carbonitrile] | 9.8 |
| CCc1c(-c2cccc(I)c2)[nH]c2c(C#N)cnn2c1=O [Example 24, 6-ethyl-5-(3-iodophenyl)-7-oxo-4,7-dihydropyrazolo[1,5-a]pyrimidine-3-carbonitrile] | 7 |
| CCc1c(C(=O)O)[nH]c2c(C#N)cnn2c1=O [Example 25, 3-cyano-6-ethyl-7-oxo-4,7-dihydropyrazolo[1,5-a]pyrimidine-5-carb oxylic acid] | 220 |
| CCc1c(C(N)=O)n(C)c2c(C#N)cnn2c1=O [Example 26, 3-cyano-6-ethyl-4-methyl-7-oxo-4,7-dihydropyrazolo[1,5-a]pyrimidine-5-carboxamide] | 4400 |
| CCc1c(C(=O)NC)n(C)c2c(C#N)cnn2c1=O [Example 27, 3-cyano-6-ethyl-N,4-dimethyl-7-oxo-4,7-dihydropyrazolo[1,5-a]pyrimidine-5-carboxamide] | 3900 |
| CCc1c(-c2nc(C)no2)[nH]c2c(C#N)cnn2c1=O [Example 28, 6-ethyl-5-(3-methyl-1,2,4-oxadiazol-5-yl)-7-oxo-4H-pyrazolo[1,5-a]pyrimidine-3-carbonitrile] | 18 |
| CCc1c(-c2nnc(C)o2)[nH]c2c(C#N)cnn2c1=O [Example 29, 6-ethyl-5-(5-methyl-1,3,4-oxadiazol-2-yl)-7-oxo-4,7-dihydropyrazolo[1,5-a]pyrimidine-3-carbonitrile] | 16 |
| CCc1c(-c2ncc[nH]2)[nH]c2c(C#N)cnn2c1=O [Example 30, 6-ethyl-5-(1H-imidazol-2-yl)-7-oxo-4,7-dihydropyrazolo[1,5-a]pyrimidine-3-carbonitrile] | 12 |
| CCc1c(C(=O)NCC(=O)c2ccccc2)[nH]c2c(C#N)cnn2c1=O [Example 31, 3-cyano-6-ethyl-7-oxo-N-(2-oxo-2-phenylethyl)-4,7-dihydropyrazolo[1,5-a]pyrimidine-5-carboxamide] | 25 |
| CCc1c(-c2ncc(-c3ccccc3)o2)[nH]c2c(C#N)cnn2c1=O [Example 32, 6-ethyl-7-oxo-5-(5-phenyloxazol-2-yl)-4,7-dihydropyrazolo[1,5-a]pyrimidine-3-carbonitrile] | 15 |
| N#Cc1cnn2c(=O)c(CC(F)F)c(-c3ccccc3)[nH]c12 [Example 33, 6-(2,2-Difluoroethyl)-7-oxo-5-phenyl-4H-pyrazolo[1,5-a]pyrimidine-3-carbonitrile] | 9.3 |
| N#Cc1cnn2c(=O)c(C3CCC3)c(-c3ccccc3)[nH]c12 [Example 34, 6-Cyclobutyl-7-oxo-5-phenyl-4H-pyrazolo[1,5-a]pyrimidine-3-carbonitrile] | 9.5 |
| N#Cc1cnn2c(=O)c(C3CCC3)c(-c3cn[nH]c3)[nH]c12 [Example 35, 6-Cyclobutyl-7-oxo-5-(1H-pyrazol-4-yl)-4H-pyrazolo[1,5-a]pyrimidine-3-carbonitrile] | 30 |
| N#Cc1cnn2c(=O)c(C3CCC3)c(-c3cnn(C4CCCCC4)c3)[nH]c12 [Example 36, 6-Cyclobutyl-5-(1-cyclohexylpyrazol-4-yl)-7-oxo-4H-pyrazolo[1,5-a]pyrimidine-3-carbonitrile] | 10.4 |
| C#CCc1c(-c2ccccc2)[nH]c2c(C#N)cnn2c1=O [Example 37, 7-Oxo-5-phenyl-6-(prop-2-yn-1-yl)-4,7-dihydropyrazolo[1,5-a]pyrimidine-3-carbonitrile] | 24 |
| C#CC(C)c1c(-c2cnn(C(C)C)c2)[nH]c2c(C#N)cnn2c1=O (centres unmarked) [Example 38, 5-(1-isopropylpyrazol-4-yl)-6-(1-methylprop-2-ynyl)-7-oxo-4H-pyrazolo[1,5-a]pyrimidine-3-carbonitrile] | 36 |
| CC(c1c(-c2ccccc2)[nH]c2c(C#N)cnn2c1=O)C1CC1 (centres unmarked) [Example 39, 6-(1-cyclopropylethyl)-7-oxo-5-phenyl-4H-pyrazolo[1,5-a]pyrimidine-3-carbonitrile] | 128 |
| CCc1c(-c2cccc(-c3ccccc3)c2)[nH]c2c(C#N)cnn2c1=O [Example 40, 5-([1,1′-Biphenyl]-3-yl)-6-ethyl-7-oxo-4,7-dihydropyrazolo[1,5-a]pyrimidine-3-carbonitrile] | 10 |

From patent US10035801B2, “Pyrazolo compounds and uses thereof” (CONSTELLATION PHARMACEUTICALS, INC., priority 2013, dated 2018)
